Results: patent publication US11672775B2, “Treprostinil prodrugs” (United Therapeutics Corporation, priority 2016, dated 2023)
In brackets after ≈: the same amount, converted by molar mass. Entries after “also recorded” stand apart in the source; their conditions may differ.

What was measured:
Sprague Dawley rats [1] = assay: Rat intraplantar injection model, clinical observation score (Example 9); type: in vivo, Sprague Dawley rat; details: for clinical score: 15 min; for clinical score vs similar doses of treprostinil: both doses
Experimental: (§1) Male Sprague Dawley rats (n=112) were allocated into 14 groups of 8/group. The study was run in 2 cycles, on consecutive days, 7 groups per cycle. Each cycle was composed of a Saline group, PBS group, which served as the control, and also treprostinil at a dose of 100 μg/mL or 1 μg/mL.
(§2) Animals were administered 0.1 mL of test material by subcutaneous injection into the paw pad (Intraplantar injection) at time zero. Animals were subsequently evaluated for their response to mechanical (von Frey filaments) and thermal stimuli, 15 and 90 minutes post-injection. The von Frey test was conducted prior to the thermal test, which followed immediately within minutes for each animal. In addition, clinical observation scoring of the animal's reaction to injection was conducted. FIG. 16 schematically illustrates the study design.
A Clinical observation score was assigned by assessing for redness, swelling and paw placement.

Sprague Dawley rats [2] = assay: Rat intraplantar injection model, von Frey test (Example 9); type: in vivo, Sprague Dawley rat; details: for sensitivity to mechanical stimulation vs similar doses of treprostinil: both doses
Experimental: as §1, §2
Mechanical pain sensitivity was tested using the von Frey test, which measures the withdrawal force threshold of the animals. The lower the force applied represents a greater sensitivity to the stimulus. The von Frey test was performed 15 and 90 minutes post-Test Item injection.

[3] = Solution stability in vehicle (UPLC area %); type: physicochemical; details: for T0 Residual Treprostinil / Solution stability, T0 Purity: 20 mM sodium phosphate dibasic with 125 mM sodium chloride; for Solution stability, T0 Purity: ambient; for T24 Residual Treprostinil / T72 Residual Treprostinil / Solution stability, T24 hours Purity / Solution stability, T72 hours Purity: same vehicle
Experimental: (§3) Each prodrug was dissolved in a vehicle containing 20 mM sodium phosphate dibasic with 125 mM sodium chloride. Prodrugs were prepared at saturation concentrations by weighing 15-30 mg of prodrug in to a 4 mL clear glass vial and dissolving in an appropriate volume of vehicle (0.5-1.0 mL) to achieve a nominal saturation concentration of 30 mg/mL. The solutions were mixed for 23 hours on a rotating mixer. […] The resultant supernatant solutions were isolated from undissolved prodrug by centrifugation at 15000 RPM for 15 min. Supernatants were transferred to clear glass vials and stored at ambient temperature. […] The resultant samples were assayed against treprostinil to determine prodrug concentration. At each testing interval (0, 24, 72 hours) the supernatant was assayed for prodrug concentration and purity by area %.

[4] = Equilibrium solubility in vehicle; type: physicochemical; details: 20 mM sodium phosphate dibasic with 125 mM sodium chloride; for solubility thermodynamic at 23 h: read-out: Equilibrium solubility, T0 hours Concentration; for solubility thermodynamic at 24 h: read-out: Equilibrium solubility, T24 hours Concentration; for solubility thermodynamic at 72 h: read-out: Equilibrium solubility, T72 hours Concentration
Experimental: as §3

Sprague Dawley rats [5] = assay: Rat intraplantar injection model, thermal pain sensitivity (Example 9); type: in vivo, Sprague Dawley rat; details: both doses (1 and 100 μg/mL); both time points
Experimental: as §1, §2
The sensitivity of animals to a thermal pain stimulus was assessed immediately following the von Frey test. The time until withdrawal of the right-injected leg from a heat source was measured, and the lower (faster) the time of response represents a greater sensitivity to the stimulus. The test was performed 15 and 90 minutes post-Test Item injection.

[6] = Stability in 200 mM potassium phosphate buffer (pH 7.4); type: physicochemical; details: 1 μM
Experimental: According to the earlier aqueous solution stability study, all prodrugs are stable in 20 mM Sodium Phosphate dibasic with 125 mM NaCl at saturation concentrations (3-30 mg/ml). Also, in the method development work, it was also observed that the most unstable prodrugs III, IV and XIV were stable in 200 mM potassium phosphate buffer (pH 7.4) at a low concentration of 1 μM.

[7] = 100 μg/mL (cycle 1), 90 minutes post-injection
[8] = 1 μg/mL or 100 μg/mL, 15 and 90 minutes post-injection
[9] = aqueous buffer, thermodynamic from solid, T0 hours
[10] = aqueous buffer, thermodynamic from solid, T24 hours
[11] = aqueous buffer, thermodynamic from solid, T72 hours
[12] = only the 1 μg/mL dose, both time points

| Compound | clinical score (Sprague Dawley rats [1]; 100 μg/mL (cycle 1)) | T0 Residual Treprostinil [3] [% Area] | Solution stability, T0 Purity [3] [% Area] | T24 Residual Treprostinil [3] [% Area] | T72 Residual Treprostinil [3] [% Area] | Solution stability, T24 hours Purity [3] [% Area] | Solution stability, T72 hours Purity [3] [% Area] | solubility thermodynamic at 23 h [4, 9] [µg/mL] | solubility thermodynamic at 24 h [4, 10] [µg/mL] | solubility thermodynamic at 72 h [4, 11] [µg/mL] | further results |
| --- | --- | --- | --- | --- | --- | --- | --- | --- | --- | --- | --- |
| CCCCC[C@@H](CC[C@@H]1[C@H]2Cc3cccc(OCC(=O)O)c3C[C@H]2C[C@H]1O)OC(=O)N(C)C [Prodrug II, treprostinil side-chain carbamate] | non-zero | – | – | – | – | – | – | – | – | – | clinical score vs PBS group (Sprague Dawley rats [1]; [7]): non-zero; clinical score vs PBS group (Sprague Dawley rats [1]; 100 μg/mL, both time points): not statistically significantly different; clinical score vs similar doses of treprostinil (Sprague Dawley rats [1]; both time points): reduced clinical score; von Frey withdrawal force threshold vs PBS-treated group (Sprague Dawley rats [2]; [8]): no statistically significant difference; sensitivity to mechanical stimulation vs similar doses of treprostinil (Sprague Dawley rats [2]; both time points): statistically significant reduced sensitivity |
| CCCCC[C@H](O)CC[C@@H]1[C@H]2Cc3cccc(OCC(=O)N[C@@H](C)C(=O)O)c3C[C@H]2C[C@H]1O [Prodrug X, treprostinil alanine amide] | – | 0.08 | 96.59 | 0.08 | 0.08 | 96.32 | 96.54 | 10000 (≈ 21.7 mM) | 10600 (≈ 23 mM) | 11300 (≈ 24.5 mM) | – |
| CCCCC[C@H](O)CC[C@@H]1[C@H]2Cc3cccc(OCC(=O)O)c3C[C@H]2C[C@H]1OC(=O)N(C)C [Prodrug I, treprostinil ring carbamate] | non-zero | – | – | – | – | – | – | – | – | – | clinical score vs PBS group (Sprague Dawley rats [1]; [7]): non-zero; also recorded: statistically significant increase in the clinical score; clinical score vs similar dose of treprostinil (Sprague Dawley rats [1]; [12]): reduced clinical score; von Frey withdrawal force threshold vs PBS-treated group (Sprague Dawley rats [2]; 1 μg/mL, both time points post-injection): no statistically significant difference; von Frey withdrawal force threshold vs PBS-treated group (Sprague Dawley rats [2]; 100 μg/mL, 15 minutes post-injection): no statistically significant difference; von Frey withdrawal force threshold vs PBS-treated group (Sprague Dawley rats [2]; 100 μg/mL, 90 minutes post-injection): statistically significant increased sensitivity; sensitivity to mechanical stimulation vs similar dose of treprostinil (Sprague Dawley rats [2]; [12]): reduced sensitivity |
| treprostinil monomethyl carbamate [Prodrug VIII] | non-zero | 0.11 | 96.41 | 0.11 | 0.15 | 96.40 | 96.34 | – | – | – | thermal paw withdrawal time vs PBS group (Sprague Dawley rats [5]): trend toward reduction in the time of response; Equilibrium solubility, T0 hours Concentration ([4]; T0 hours): 11000 µg/mL; Equilibrium solubility, T24 hours Concentration ([4]; T24 hours): 10500 µg/mL; Equilibrium solubility, T72 hours Concentration ([4]; T72 hours): 10900 µg/mL; clinical score vs PBS group (Sprague Dawley rats [1]; 100 μg/mL, both time points): not statistically significantly different; clinical score vs similar doses of treprostinil (Sprague Dawley rats [1]; both time points): reduced clinical score; von Frey withdrawal force threshold vs PBS-treated group (Sprague Dawley rats [2]; [8]): no statistically significant difference; sensitivity to mechanical stimulation vs similar doses of treprostinil (Sprague Dawley rats [2]; both time points): statistically significant reduced sensitivity |
| CCCCC[C@H](O)CC[C@@H]1[C@H]2Cc3cccc(OCC(=O)O)c3C[C@H]2C[C@H]1OC(=O)OC [Prodrug III, cyclopentyl methyl carbonate of treprostinil] | – | 0.15 | 94.48 | 0.14 | 0.15 | 94.31 | 94.61 | 6100 (≈ 13.6 mM) | 6000 (≈ 13.4 mM) | 6200 (≈ 13.8 mM) | stability in buffer [6]: stable |

Second part, led by results:

| clinical score (Sprague Dawley rats [1]; 100 μg/mL (cycle 1)) | T0 Residual Treprostinil [3] [% Area] | Solution stability, T0 Purity [3] [% Area] | T24 Residual Treprostinil [3] [% Area] | T72 Residual Treprostinil [3] [% Area] | Solution stability, T24 hours Purity [3] [% Area] | Solution stability, T72 hours Purity [3] [% Area] | solubility thermodynamic at 23 h [4, 9] [µg/mL] | solubility thermodynamic at 24 h [4, 10] [µg/mL] | solubility thermodynamic at 72 h [4, 11] [µg/mL] | Compound | further results |
| --- | --- | --- | --- | --- | --- | --- | --- | --- | --- | --- | --- |
| – | – | 99.49 | – | – | 99.39 | 98.92 | 11500 (≈ 23.5 mM) | 11300 (≈ 23.1 mM) | 11500 (≈ 23.5 mM) | CCCCC[C@H](O)CC[C@@H]1[C@H]2Cc3cccc(OCC(=O)NC(C(=O)O)C(C)C)c3C[C@H]2C[C@H]1O (stereo partly drawn) [Prodrug XI, treprostinil valine amide] | – |
| – | – | 97.66 | – | – | 97.81 | 97.58 | 3200 (≈ 6.7 mM) | 3700 (≈ 7.75 mM) | 3800 (≈ 7.96 mM) | CCCCC[C@H](O)CC[C@@H]1[C@H]2Cc3cccc(OCC(=O)N[C@@H](CO)C(=O)O)c3C[C@H]2C[C@H]1O [Prodrug XIII, treprostinil serine amide] | solubility at 23 h ([4]; aqueous buffer, thermodynamic from solid, approximate, read-out: Solubility in the selected vehicle): ~3500 µg/mL (≈ 7.33 mM) |
| – | – | 98.70 | – | – | 98.68 | 98.58 | 7400 (≈ 14.6 mM) | 7500 (≈ 14.8 mM) | 7400 (≈ 14.6 mM) | CCCCC[C@H](O)CC[C@@H]1[C@H]2Cc3cccc(OCC(=O)NC(CC(=O)O)C(=O)O)c3C[C@H]2C[C@H]1O (stereo partly drawn) [Prodrug XII, treprostinil aspartic acid amide] | – |
